Test results from patent publication US20230085307A1, “PYRIDAZINONE COMPOUND AND HERBICIDE” (NISSAN CHEMICAL CORPORATION, priority 2019, published 2023).

Tests used:
redroot pigweed [1] = assay: Test Example 5: herbicidal effect by foliage application, plastic box (Table 20, symbol N); format: in vivo, redroot pigweed (Amaranthus retroflexus); conditions: 320 g/ha, evaluated three weeks after application
Summary of the method: (§1)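 Foliar spray test: emulsion formulation diluted in water to a set application rate, sprayed onto 14-day-old plants raised in diluvial soil at 25° C to 30° C under glass. Both herbicidal effect and crop effect rated visually three weeks later.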

wild oat [2] = assay: Test Example 4: herbicidal effect by soil treatment (Table 19, symbol I); format: in vivo, wild oat (Avena fatua); conditions: amount of applied herbicide 320 g/ha
Summary of the method: (§2)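 Step 1: sow seeds in sterilized diluvial soil, cover ~1.5 cm. Step 2: spray diluted emulsion onto soil surface at predetermined rate. Step 3: greenhouse, 25–30° C, three weeks. Step 4: grade effect on each plant by earlier criteria.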

Chinese sprangletop = assay: Test Example 3: herbicidal effect by foliage application, Wagner pot (Table 18, symbol D); format: in vivo, chinese sprangletop (Leptochloa chinensis)
Summary of the method: (§3)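 Plants were sown in alluvial soil held under 0.1–0.5 cm standing water and grown 14 days in a greenhouse at 25–30 °C. An emulsifiable formulation, water-diluted to the set dose, was then sprayed onto the foliage, and effects were scored three weeks later using previously defined criteria.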

barnyard grass [3] = assay: Test Example 4: herbicidal effect by soil treatment (Table 19, symbol H); format: in vivo, barnyard grass (Echinochloa crus-galli); conditions: amount of applied herbicide 320 g/ha
Summary of the method: as §2

rice flat sedge = assay: Test Example 3: herbicidal effect by foliage application, Wagner pot (Table 18, symbol E); format: in vivo, rice flat sedge (Cyperus iria)
Summary of the method: as §3

lambsquarters [4] = assay: Test Example 5: herbicidal effect by foliage application, plastic box (Table 20, symbol O); format: in vivo, lambsquarters (Chenopodium album); conditions: 320 g/ha, evaluated three weeks after application
Summary of the method: as §1

barnyard grass [5] = assay: Test Example 5: herbicidal effect by foliage application, plastic box (Table 20, symbol H); format: in vivo, barnyard grass (Echinochloa crus-galli); conditions: 320 g/ha, evaluated three weeks after application
Summary of the method: as §1

Italian ryegrass [6] = assay: Test Example 4: herbicidal effect by soil treatment (Table 19, symbol K); format: in vivo, Italian ryegrass (Lolium multiflorum); conditions: amount of applied herbicide 320 g/ha
Summary of the method: as §2

lambsquarters [7] = assay: Test Example 4: herbicidal effect by soil treatment (Table 19, symbol O); format: in vivo, lambsquarters (Chenopodium album); conditions: amount of applied herbicide 320 g/ha
Summary of the method: as §2

blackgrass [8] = assay: Test Example 4: herbicidal effect by soil treatment (Table 19, symbol J); format: in vivo, blackgrass (Alopecurus myosuroides); conditions: amount of applied herbicide 320 g/ha
Summary of the method: as §2

persian speedwell [9] = assay: Test Example 5: herbicidal effect by foliage application, plastic box (Table 20, symbol R); format: in vivo, Persian speedwell (Veronica persica); conditions: 320 g/ha, evaluated three weeks after application
Summary of the method: as §1

blackgrass [10] = assay: Test Example 5: herbicidal effect by foliage application, plastic box (Table 20, symbol J); format: in vivo, blackgrass (Alopecurus myosuroides); conditions: 320 g/ha, evaluated three weeks after application
Summary of the method: as §1

green foxtail [11] = assay: Test Example 4: herbicidal effect by soil treatment (Table 19, symbol G); format: in vivo, green foxtail (Setaria viridis); conditions: amount of applied herbicide 320 g/ha
Summary of the method: as §2

velvetleaf [12] = assay: Test Example 4: herbicidal effect by soil treatment (Table 19, symbol M); format: in vivo, velvetleaf (Abutilon theophrasti); conditions: amount of applied herbicide 320 g/ha
Summary of the method: as §2

Italian ryegrass [13] = assay: Test Example 5: herbicidal effect by foliage application, plastic box (Table 20, symbol K); format: in vivo, Italian ryegrass (Lolium multiflorum); conditions: 320 g/ha, evaluated three weeks after application
Summary of the method: as §1

southern crabgrass [14] = assay: Test Example 4: herbicidal effect by soil treatment (Table 19, symbol F); format: in vivo, southern crabgrass (Digitaria ciliaris); conditions: amount of applied herbicide 320 g/ha
Summary of the method: as §2

velvetleaf [15] = assay: Test Example 5: herbicidal effect by foliage application, plastic box (Table 20, symbol M); format: in vivo, velvetleaf (Abutilon theophrasti); conditions: 320 g/ha, evaluated three weeks after application
Summary of the method: as §1

wild oat [16] = assay: Test Example 5: herbicidal effect by foliage application, plastic box (Table 20, symbol I); format: in vivo, wild oat (Avena fatua); conditions: 320 g/ha, evaluated three weeks after application
Summary of the method: as §1

windgrass [17] = assay: Test Example 4: herbicidal effect by soil treatment (Table 19, symbol L); format: in vivo, windgrass (Apera spica-venti); conditions: amount of applied herbicide 320 g/ha
Summary of the method: as §2

southern crabgrass [18] = assay: Test Example 5: herbicidal effect by foliage application, plastic box (Table 20, symbol F); format: in vivo, southern crabgrass (Digitaria ciliaris); conditions: 320 g/ha, evaluated three weeks after application
Summary of the method: as §1

green foxtail [19] = assay: Test Example 5: herbicidal effect by foliage application, plastic box (Table 20, symbol G); format: in vivo, green foxtail (Setaria viridis); conditions: 320 g/ha, evaluated three weeks after application
Summary of the method: as §1

windgrass [20] = assay: Test Example 5: herbicidal effect by foliage application, plastic box (Table 20, symbol L); format: in vivo, windgrass (Apera spica-venti); conditions: foliage application, 320 g/ha, evaluated three weeks after application
Summary of the method: as §1

chickweed [21] = assay: Test Example 4: herbicidal effect by soil treatment (Table 19, symbol P); format: in vivo, common chickweed (Stellaria media); conditions: amount of applied herbicide 320 g/ha
Summary of the method: as §2

chickweed [22] = assay: Test Example 5: herbicidal effect by foliage application, plastic box (Table 20, symbol P); format: in vivo, common chickweed (Stellaria media); conditions: 320 g/ha, evaluated three weeks after application
Summary of the method: as §1

persian speedwell [23] = assay: Test Example 4: herbicidal effect by soil treatment (Table 19, symbol R); format: in vivo, Persian speedwell (Veronica persica); conditions: amount of applied herbicide 320 g/ha
Summary of the method: as §2

barnyard grass [24] = assay: Test Example 3: herbicidal effect by foliage application, Wagner pot (Table 18, symbol H); format: in vivo, barnyard grass (Echinochloa crus-galli)
Summary of the method: as §3

redroot pigweed [25] = assay: Test Example 4: herbicidal effect by soil treatment (Table 19, symbol N); format: in vivo, redroot pigweed (Amaranthus retroflexus); conditions: amount of applied herbicide 320 g/ha
Summary of the method: as §2

[26] = amount of applied herbicide 320 g/ha
[27] = foliage application after 14-day growth

## CCCC(=O)Oc1c(C)nn(C)c(=O)c1-c1c(-c2ccc(C#N)cc2)sc2ccc(C)cc12 [2-147]
Redroot pigweed [1]; foliage application
  herbicidal effect on N: redroot pigweed (criteria 0-5): 5 (Herbicidal rate of 90% or more (almost completely withered))
Wild oat [2]
  I: wild oat, herbicidal effect rating: 0 (Herbicidal rate of 5% or less (almost no effect))
Chinese sprangletop; [26]
  herbicidal effect on D: Chinese sprangletop: 0 (Herbicidal rate of 5% or less (almost no effect))
Barnyard grass [3]
  H: barnyard grass, herbicidal effect rating: 0 (Herbicidal rate of 5% or less (almost no effect))
Rice flat sedge; [26]
  herbicidal effect on E: rice flat sedge: 5 (Herbicidal rate of 90% or more (almost completely withered))
Lambsquarters [4]; foliage application
  herbicidal effect on O: lambsquarters (criteria 0-5): 3 (Herbicidal rate of 40% or more and less than 70%)
Barnyard grass [5]; foliage application
  herbicidal effect on H: barnyard grass (criteria 0-5): 0 (Herbicidal rate of 5% or less (almost no effect))
Italian ryegrass [6]
  K: Italian ryegrass, herbicidal effect rating: 0 (Herbicidal rate of 5% or less (almost no effect))
Lambsquarters [7]
  O: lambsquarters, herbicidal effect rating: 0 (Herbicidal rate of 5% or less (almost no effect))
Blackgrass [8]
  J: blackgrass, herbicidal effect rating: 0 (Herbicidal rate of 5% or less (almost no effect))
Persian speedwell [9]; foliage application
  herbicidal effect on R: persian speedwell (criteria 0-5): 5 (Herbicidal rate of 90% or more (almost completely withered))
Blackgrass [10]; foliage application
  herbicidal effect on J: blackgrass (criteria 0-5): 0 (Herbicidal rate of 5% or less (almost no effect))
Green foxtail [11]
  G: green foxtail, herbicidal effect rating: 0 (Herbicidal rate of 5% or less (almost no effect))
Velvetleaf [12]
  M: velvetleaf, herbicidal effect rating: 0 (Herbicidal rate of 5% or less (almost no effect))
Italian ryegrass [13]; foliage application
  herbicidal effect on K: Italian ryegrass (criteria 0-5): 0 (Herbicidal rate of 5% or less (almost no effect))
Southern crabgrass [14]
  F: southern crabgrass, herbicidal effect rating: 0 (Herbicidal rate of 5% or less (almost no effect))
Velvetleaf [15]; foliage application
  herbicidal effect on M: velvetleaf (criteria 0-5): 4 (Herbicidal rate of 70% or more and less than 90%)
Wild oat [16]; foliage application
  herbicidal effect on I: wild oat (criteria 0-5): 0 (Herbicidal rate of 5% or less (almost no effect))
Windgrass [17]
  L: windgrass, herbicidal effect rating: 0 (Herbicidal rate of 5% or less (almost no effect))
Southern crabgrass [18]; foliage application
  herbicidal effect on F: southern crabgrass (criteria 0-5): 0 (Herbicidal rate of 5% or less (almost no effect))
Green foxtail [19]; foliage application
  herbicidal effect on G: green foxtail (criteria 0-5): 0 (Herbicidal rate of 5% or less (almost no effect))
Windgrass [20]
  herbicidal effect on L: windgrass (criteria 0-5): 0 (Herbicidal rate of 5% or less (almost no effect))
Chickweed [21]
  P: chickweed, herbicidal effect rating: 4 (Herbicidal rate of 70% or more and less than 90%)
Chickweed [22]; foliage application
  herbicidal effect on P: chickweed (criteria 0-5): 5 (Herbicidal rate of 90% or more (almost completely withered))
Persian speedwell [23]
  R: persian speedwell, herbicidal effect rating: 5 (Herbicidal rate of 90% or more (almost completely withered))
Barnyard grass [24]; [26]
  herbicidal effect on H: barnyard grass: 1 (Herbicidal rate of 5% or more and less than 20%)

## Cc1nn(C)c(=O)c(-c2c(-c3ccc(F)cc3)sc3c(F)cccc23)c1O [4-001]
Redroot pigweed [1]; [27]
  herbicidal effect on N: redroot pigweed (evaluation grade 0-5): 3 (Herbicidal rate of 40% or more and less than 70%)
Wild oat [2]
  Herbicidal effect by soil treatment, I: wild oat: 0 (Herbicidal rate of 5% or less (almost no effect))
Chinese sprangletop; 320 g/ha
  herbicidal effect on Chinese sprangletop (D): 3 (Herbicidal rate of 40% or more and less than 70%)
Barnyard grass [3]
  Herbicidal effect by soil treatment, H: barnyard grass: 0 (Herbicidal rate of 5% or less (almost no effect))
Rice flat sedge; 320 g/ha
  herbicidal effect on rice flat sedge (E): 5 (Herbicidal rate of 90% or more (almost completely withered))
Lambsquarters [4]; [27]
  herbicidal effect on O: lambsquarters (evaluation grade 0-5): 2 (Herbicidal rate of 20% or more and less than 40%)
Barnyard grass [5]; [27]
  herbicidal effect on H: barnyard grass (evaluation grade 0-5): 2 (Herbicidal rate of 20% or more and less than 40%)
Italian ryegrass [6]
  Herbicidal effect by soil treatment, K: Italian ryegrass: 0 (Herbicidal rate of 5% or less (almost no effect))
Lambsquarters [7]
  Herbicidal effect by soil treatment, O: lambsquarters: 5 (Herbicidal rate of 90% or more (almost completely withered))
Blackgrass [8]
  Herbicidal effect by soil treatment, J: blackgrass: 0 (Herbicidal rate of 5% or less (almost no effect))
Persian speedwell [9]; [27]
  herbicidal effect on R: persian speedwell (evaluation grade 0-5): 5 (Herbicidal rate of 90% or more (almost completely withered))
Blackgrass [10]; [27]
  herbicidal effect on J: blackgrass (evaluation grade 0-5): 2 (Herbicidal rate of 20% or more and less than 40%)
Green foxtail [11]
  Herbicidal effect by soil treatment, G: green foxtail: 0 (Herbicidal rate of 5% or less (almost no effect))
Velvetleaf [12]
  Herbicidal effect by soil treatment, M: velvetleaf: 3 (Herbicidal rate of 40% or more and less than 70%)
Italian ryegrass [13]; [27]
  herbicidal effect on K: Italian ryegrass (evaluation grade 0-5): 2 (Herbicidal rate of 20% or more and less than 40%)
Southern crabgrass [14]
  Herbicidal effect by soil treatment, F: southern crabgrass: 0 (Herbicidal rate of 5% or less (almost no effect))
Velvetleaf [15]; [27]
  herbicidal effect on M: velvetleaf (evaluation grade 0-5): 5 (Herbicidal rate of 90% or more (almost completely withered))
Wild oat [16]; [27]
  herbicidal effect on I: wild oat (evaluation grade 0-5): 0 (Herbicidal rate of 5% or less (almost no effect))
Windgrass [17]
  Herbicidal effect by soil treatment, L: windgrass: 0 (Herbicidal rate of 5% or less (almost no effect))
Redroot pigweed [25]
  Herbicidal effect by soil treatment, N: redroot pigweed: 2 (Herbicidal rate of 20% or more and less than 40%)
Southern crabgrass [18]; [27]
  herbicidal effect on F: southern crabgrass (evaluation grade 0-5): 0 (Herbicidal rate of 5% or less (almost no effect))
Green foxtail [19]; [27]
  herbicidal effect on G: green foxtail (evaluation grade 0-5): 4 (Herbicidal rate of 70% or more and less than 90%)
Chickweed [21]
  Herbicidal effect by soil treatment, P: chickweed: 4 (Herbicidal rate of 70% or more and less than 90%)
Chickweed [22]; [27]
  herbicidal effect on P: chickweed (evaluation grade 0-5): 5 (Herbicidal rate of 90% or more (almost completely withered))
Persian speedwell [23]
  Herbicidal effect by soil treatment, R: persian speedwell: 4 (Herbicidal rate of 70% or more and less than 90%)
Barnyard grass [24]; 320 g/ha
  herbicidal effect on barnyard grass (H): 4 (Herbicidal rate of 70% or more and less than 90%)
